Test results: patent EP4273147A1, “SUBSTITUTED SPIROLACTAMS, SALTS THEREOF AND THEIR USE AS HERBICIDALLY ACTIVE SUBSTANCES” (Bayer Aktiengesellschaft, priority 2022, dated 2023)

How the values were obtained:
ALOMY [1] = test: Herbicidal pre-emergence action, section C (Table C2); type: in vivo, Alopecurus myosuroides; settings: application rate 320 g/ha; visual grading after ca. 3 weeks
Source text: (§4) Seeds of mono- and dicotyledonous weed plants and crop plants were sown, in plastic or organic planting pots, in sandy loam and covered with soil. The compounds according to the invention, formulated in the form of wettable powders (WP) or as emulsifiable concentrates (EC), were applied to the surface of the covering soil as aqueous suspension or emulsion, with the addition of 0.5% of an additive, at an application rate of 600 1 of water/ha (converted). Following treatment, the pots were placed in a greenhouse and kept under optimum growth conditions for the test plants.

ALOMY [2] = test: Herbicidal post-emergence action (Table B2); type: in vivo, Alopecurus myosuroides; settings: application rate 320 g/ha; rated visually after about 3 weeks
Method in brief: (§1)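 Each pot held sandy loam sown with a single mono- or dicot weed species, grown under controlled greenhouse conditions. Test plants were sprayed at the one-leaf stage, and after about 3 weeks of further growth the percentage activity relative to untreated plants was rated visually.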

KCHSC [3] = test: Herbicidal pre-emergence action (Table A10); type: in vivo, Kochia scoparia; settings: visual grading after ca. 3 weeks
Method in brief: (§2)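 Weed seeds are sown into sandy loam in pots and covered with soil, with two species per pot, one monocot and one dicot.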

LOLRI [4] = test: Herbicidal post-emergence action (Table B5); type: in vivo, Lolium rigidum; settings: application rate 1280 g/ha; rated visually after about 3 weeks
Method in brief: as §1

STEME [5] = test: Herbicidal pre-emergence action (Table A6); type: in vivo, Stellaria media; settings: visual grading after ca. 3 weeks
Method in brief: as §2

POAAN [6] = test: Herbicidal pre-emergence action (Table A7); type: in vivo, Poa annua; settings: application rate 320 g/ha, visual grading after ca. 3 weeks
Method in brief: as §2

POAAN [7] = test: Herbicidal post-emergence action (Table B7); type: in vivo, Poa annua
Method in brief: as §1

VERPE [8] = test: Herbicidal post-emergence action, section E (Table E9); type: in vivo, Veronica persica; settings: application rate 320 g/ha; assessed visually after ca. 3 weeks
Source text: (§3) 2 to 3 weeks after sowing, the test plants were sprayed in the single-leaf stage.

VERPE [9] = test: Herbicidal pre-emergence action (Table A11); type: in vivo, Veronica persica; settings: visual grading after ca. 3 weeks
Method in brief: as §2

MATIN [10] = test: Herbicidal post-emergence action (Table B6); type: in vivo, Matricaria inodora; settings: application rate 320 g/ha; rated visually after about 3 weeks
Method in brief: as §1

VERPE [11] = test: Herbicidal post-emergence action (Table B10); type: in vivo, Veronica persica; settings: application rate 320 g/ha
Method in brief: as §1

ALOMY [12] = test: Herbicidal post-emergence action, section E (Table E2); type: in vivo, Alopecurus myosuroides; settings: application rate 320 g/ha; assessed visually after ca. 3 weeks
Source text: as §3

TRZAS [13] = test: Post-emergence effects on crop plants (Table F2); type: in vivo, Triticum aestivum; settings: crop plant TRZAS
Source text: as §3

DIGSA [14] = test: Herbicidal pre-emergence action, section C (Table C5); type: in vivo, Digitaria sanguinalis; settings: visual grading after ca. 3 weeks
ABUTH [15] = test: Herbicidal post-emergence action (Table B1); type: in vivo, Abutilon theophrasti; settings: application rate 320 g/ha; treated at one-leaf stage; rated visually after about 3 weeks vs untreated controls (100% = plants have died, 0% = like control plants)
Method in brief: as §1

LOLRI [16] = test: Herbicidal pre-emergence action, section C (Table C7); type: in vivo, Lolium rigidum; settings: application rate 320 g/ha; visual grading after ca. 3 weeks
KCHSC [17] = test: Herbicidal post-emergence action (Table B4); type: in vivo, Kochia scoparia; settings: application rate 1280 g/ha; rated visually after about 3 weeks
Method in brief: as §1

DIGSA [18] = test: Herbicidal pre-emergence action (Table A12); type: in vivo, Digitaria sanguinalis; settings: application rate 320 g/ha; visual grading after ca. 3 weeks
Method in brief: as §2

ORYZA [19] = test: Post-emergence effects on crop plants (Table F3); type: in vivo, Oryza sativa; settings: crop plant ORYZA
Source text: as §3

VERPE [20] = test: Herbicidal pre-emergence action, section C (Table C11); type: in vivo, Veronica persica; settings: application rate 320 g/ha; visual grading after ca. 3 weeks
ALOMY [21] = test: Herbicidal pre-emergence action (Table A9); type: in vivo, Alopecurus myosuroides; settings: application rate 1280 g/ha; visual grading after ca. 3 weeks
Method in brief: as §2

ABUTH [22] = test: Herbicidal pre-emergence action (Table A1); type: in vivo, Abutilon theophrasti; settings: application rate 1280 g/ha; visual grading after ca. 3 weeks vs untreated controls (100% = plants have died off, 0% = as control plants)
Method in brief: as §2

ECHCG [23] = test: Herbicidal pre-emergence action, section C (Table C6); type: in vivo, Echinochloa crus-galli; settings: application rate 80 g/ha; visual grading after ca. 3 weeks
SETVI [24] = test: Herbicidal pre-emergence action, section C (Table C10); type: in vivo, Setaria viridis; settings: visual grading after ca. 3 weeks
ECHCG [25] = test: Herbicidal post-emergence action, section E (Table E5); type: in vivo, Echinochloa crus-galli; settings: application rate 320 g/ha; assessed visually after ca. 3 weeks
Source text: as §3

ZEAMX [26] = test: Post-emergence effects on crop plants (Table F1); type: in vivo, Zea mays; settings: crop plant ZEAMX
Source text: as §3

SETVI [27] = test: Herbicidal post-emergence action, section E (Table E8); type: in vivo, Setaria viridis; settings: application rate 320 g/ha; assessed visually after ca. 3 weeks
Source text: as §3

LOLRI [28] = test: Herbicidal post-emergence action, section E (Table E6); type: in vivo, Lolium rigidum; settings: application rate 320 g/ha; assessed visually after ca. 3 weeks
Source text: as §3

SETVI [29] = test: Herbicidal post-emergence action (Table B8); type: in vivo, Setaria viridis; settings: application rate 1280 g/ha
Method in brief: as §1

MATIN [30] = test: Herbicidal pre-emergence action (Table A4); type: in vivo, Matricaria inodora; settings: visual grading after ca. 3 weeks
Method in brief: as §2

SETVI [31] = test: Herbicidal pre-emergence action (Table A5); type: in vivo, Setaria viridis; settings: visual grading after ca. 3 weeks
Method in brief: as §2

AMARE = test: Herbicidal post-emergence action (Table B11); type: in vivo, Amaranthus retroflexus; settings: application rate 1280 g/ha
Method in brief: as §1

VIOTR [32] = test: Herbicidal pre-emergence action, section C (Table C12); type: in vivo, Viola tricolor; settings: visual grading after ca. 3 weeks
ECHCG [33] = test: Herbicidal pre-emergence action (Table A2); type: in vivo, Echinochloa crus-galli; settings: application rate 320 g/ha; visual grading after ca. 3 weeks
Method in brief: as §2

BRSNW = test: Post-emergence effects on crop plants (Table F5); type: in vivo, Brassica napus; settings: application rate 320 g/ha, crop plant BRSNW
Source text: as §3

LOLRI [34] = test: Herbicidal pre-emergence action (Table A3); type: in vivo, Lolium rigidum; settings: application rate 320 g/ha, visual grading after ca. 3 weeks
Method in brief: as §2

MATIN [35] = test: Herbicidal pre-emergence action, section C (Table C8); type: in vivo, Matricaria inodora; settings: application rate 320 g/ha; visual grading after ca. 3 weeks
STEME [36] = test: Herbicidal post-emergence action (Table B9); type: in vivo, Stellaria media; settings: application rate 1280 g/ha
Method in brief: as §1

TRZAS [37] = test: Pre-emergence effects on crop plants (Table D2); type: in vivo, Triticum aestivum; settings: crop plant; application rate 80 g/ha; visual grading after ca. 3 weeks
Source text: Seeds of mono- and dicotyledonous weed plants and crop plants were sown, in plastic or organic planting pots, in sandy loam and covered with soil. The compounds according to the invention, formulated in the form of wettable powders (WP) or as emulsifiable concentrates (EC), were applied to the surface of the covering soil as aqueous suspension or emulsion, with the addition of 0.5% of an additive, at an application rate of 600 1 of water/ha (converted).
Following treatment, the pots were placed in a greenhouse and kept under optimum growth conditions for the test plants.

VIOTR [38] = test: Herbicidal post-emergence action, section E (Table E10); type: in vivo, Viola tricolor; settings: application rate 320 g/ha; assessed visually after ca. 3 weeks
Source text: as §3

ABUTH [39] = test: Herbicidal post-emergence action, section E (Table E1); type: in vivo, Abutilon theophrasti; settings: application rate 320 g/ha; assessed visually after ca. 3 weeks
Source text: as §3

ECHCG [40] = test: Herbicidal post-emergence action (Table B3); type: in vivo, Echinochloa crus-galli; settings: application rate 1280 g/ha; rated visually after about 3 weeks
Method in brief: as §1

ORYZA [41] = test: Pre-emergence effects on crop plants (Table D3); settings: crop plant; application rate 320 g/ha; visual grading after ca. 3 weeks
GLXMA = test: Pre-emergence effects on crop plants (Table D4); type: in vivo, Glycine max; settings: crop plant; application rate 80 g/ha; visual grading after ca. 3 weeks
ZEAMX [42] = test: Pre-emergence effects on crop plants (Table D1); type: in vivo, Zea mays; settings: crop plant; application rate 80 g/ha; visual grading after ca. 3 weeks
ABUTH [43] = test: Herbicidal pre-emergence action, section C (Table C1); type: in vivo, Abutilon theophrasti; settings: application rate 320 g/ha; visual grading after ca. 3 weeks
Source text: as §4

AVEFA = test: Herbicidal pre-emergence action, section C (Table C4); type: in vivo, Avena fatua; settings: application rate 320 g/ha; visual grading after ca. 3 weeks
Source text: as §4

O=C1N(Cc2cccc(F)c2F)CCCC12CCCN(Cc1c(F)cccc1F)C2=O (racemic) [I-008, 8-[(2,3-difluorophenyl)methyl]-2-[(2,6-difluorophenyl)methyl]-2,8-diazaspiro[5.5]undecane-1,7-dione]
80%: post-emergence activity against VERPE (VERPE [8]) | pre-emergence activity against VERPE (VERPE [20]) | pre-emergence activity against VIOTR (VIOTR [32]; application rate 320 g/ha) | pre-emergence activity against MATIN (MATIN [35])
0%: post-emergence activity against TRZAS (TRZAS [13]; application rate 80 g/ha) | post-emergence activity against ORYZA (ORYZA [19]; application rate 80 g/ha) | post-emergence activity against ZEAMX (ZEAMX [26]; application rate 320 g/ha) | post-emergence activity against BRSNW (BRSNW)
90%: pre-emergence activity against ALOMY (ALOMY [1]) | post-emergence activity against ALOMY (ALOMY [2]) | pre-emergence activity against KCHSC (KCHSC [3]; application rate 320 g/ha) | pre-emergence activity against STEME (STEME [5]; application rate 320 g/ha) | post-emergence activity against POAAN (POAAN [7]; application rate 320 g/ha) | pre-emergence activity against VERPE (VERPE [9]; application rate 320 g/ha) | post-emergence activity against MATIN (MATIN [10]) | post-emergence activity against VERPE (VERPE [11]) | post-emergence activity against ALOMY (ALOMY [12]) | post-emergence activity against ABUTH (ABUTH [15]) | pre-emergence activity against LOLRI (LOLRI [16]) | post-emergence activity against KCHSC (KCHSC [17]) | pre-emergence activity against ALOMY (ALOMY [21]) | pre-emergence activity against ABUTH (ABUTH [22]) | post-emergence activity against ECHCG (ECHCG [25]) | post-emergence activity against SETVI (SETVI [27]) | post-emergence activity against LOLRI (LOLRI [28]) | post-emergence activity against SETVI (SETVI [29]) | post-emergence activity against AMARE (AMARE) | post-emergence activity against STEME (STEME [36])
100%: post-emergence activity against LOLRI (LOLRI [4]) | pest or weed control at 320 g/ha (POAAN [6]; Poa annua, pre-emergence, 504 h, read-out: pre-emergence activity against POAAN) | pre-emergence activity against DIGSA (DIGSA [14]; application rate 80 g/ha) | pre-emergence activity against DIGSA (DIGSA [18]) | pre-emergence activity against ECHCG (ECHCG [23]) | pre-emergence activity against SETVI (SETVI [24]; application rate 80 g/ha) | pre-emergence activity against MATIN (MATIN [30]; application rate 320 g/ha) | pre-emergence activity against SETVI (SETVI [31]; application rate 320 g/ha) | pre-emergence activity against ECHCG (ECHCG [33]) | pest or weed control at 320 g/ha (LOLRI [34]; Lolium rigidum, pre-emergence, 504 h, read-out: pre-emergence activity against LOLRI)

O=C1N(Cc2ccccc2Cl)CCCC12CCN(Cc1cccc(F)c1F)C2=O (racemic) [I-035]
80%: pre-emergence activity against ALOMY (ALOMY [1]) | post-emergence activity against VIOTR (VIOTR [38]) | post-emergence activity against VERPE (VERPE [8]) | pre-emergence activity against ABUTH (ABUTH [43])
100%: pre-emergence activity against POAAN (POAAN [6]) | pre-emergence activity against DIGSA (DIGSA [14]; application rate 320 g/ha) | pre-emergence activity against DIGSA (DIGSA [18]) | pre-emergence activity against ECHCG (ECHCG [23]) | pre-emergence activity against SETVI (SETVI [24]; application rate 320 g/ha) | pre-emergence activity against SETVI (SETVI [31]; application rate 1280 g/ha) | pre-emergence activity against LOLRI (LOLRI [34]) | pre-emergence activity against AVEFA (AVEFA)
90%: pre-emergence activity against KCHSC (KCHSC [3]; application rate 1280 g/ha) | pre-emergence activity against STEME (STEME [5]; application rate 1280 g/ha) | post-emergence activity against POAAN (POAAN [7]; application rate 1280 g/ha) | post-emergence activity against ABUTH (ABUTH [39]) | pre-emergence activity against VERPE (VERPE [9]; application rate 1280 g/ha) | post-emergence activity against ECHCG (ECHCG [40]) | pre-emergence activity against LOLRI (LOLRI [16]) | pre-emergence activity against VERPE (VERPE [20]) | pre-emergence activity against ALOMY (ALOMY [21]) | pre-emergence activity against MATIN (MATIN [30]; application rate 1280 g/ha) | pre-emergence activity against VIOTR (VIOTR [32]; application rate 80 g/ha)
0%: pre-emergence activity against TRZAS (TRZAS [37]) | post-emergence activity against TRZAS (TRZAS [13]; application rate 320 g/ha) | post-emergence activity against ORYZA (ORYZA [19]; application rate 320 g/ha) | pre-emergence activity against ORYZA (ORYZA [41]) | pre-emergence activity against GLXMA (GLXMA) | post-emergence activity against ZEAMX (ZEAMX [26]; application rate 80 g/ha) | pre-emergence activity against ZEAMX (ZEAMX [42])
